Experimental data from ChEMBL document CHEMBL3603746, “Discovery of New H2S Releasing Phosphordithioates and 2,3-Dihydro-2-phenyl-2-sulfanylenebenzo[d][1,3,2]oxazaphospholes with Improved Antiproliferative Activity” (J Med Chem, 2015).

Tests used:
[1] = Induction of H2S release in 10% PBS:MeCN solution at 5 mM incubated at 22 degC in dark condition measured at 96 hrs by 2, 6-dansyl azide probed-based fluorescence assay relative to control; details: buffer, 5000 µM
[2] = Induction of H2S release in 10% PBS:MeCN solution at 5 mM incubated at 37 degC in dark condition measured at 96 hrs by 0.2 mM 2, 6-dansyl azide probed-based fluorescence assay relative to control; assay type: physicochemical; details: buffer, 5000 µM
[3] = Induction of H2S release in 10% PBS:MeCN solution assessed as ratio of H2S level at 37 degC to H2S level at 22 degC at 5 mM incubated in dark condition measured at 96 hrs by 2, 6-dansyl azide probed-based fluorescence assay; details: buffer, 5000 µM
[4] = Induction of H2S release in 10% PBS:MeCN solution at 5 mM incubated at 22 degC in dark condition measured at 96 hrs by 2, 6-dansyl azide probed-based fluorescence assay relative to GYY4137; assay type: physicochemical; details: buffer, 5000 µM
[5] = Induction of H2S release in 10% PBS:MeCN solution at 5 mM incubated at 37 degC in dark condition measured at 96 hrs by 2, 6-dansyl azide probed-based fluorescence assay relative to GYY4137; assay type: physicochemical; details: buffer, 5000 µM
[6] = tested on: MCF7; assay: Cytotoxicity against human MCF7 cells assessed as inhibition of cell proliferation after 4 days by crystal violet assay; assay type: functional, cell-based; details: MCF7, 96 h
[7] = tested on: MCF7; assay: cells; assay type: functional, cell-based; details: Homo sapiens, MCF7, 72 h
Description: Cytotoxicity against human MCF7 cells assessed as inhibition of cell proliferation after 72 hrs by MTT assay

[8] = tested on: MDA-MB-231; assay: cells; assay type: functional, cell-based; details: Homo sapiens, MDA-MB-231, 72 h
Description: Cytotoxicity against human MDA-MB-231 cells assessed as inhibition of cell proliferation after 72 hrs by MTS assay

[9] = tested on: PC-3; assay: cells; assay type: functional, cell-based; details: Homo sapiens, PC-3, 72 h
Description: Cytotoxicity against human PC3 cells assessed as inhibition of cell proliferation after 72 hrs by MTT assay

[10] = Toxicity in human WI38 cells assessed as inhibition of cell proliferation after 4 days by crystal violet assay
[11] = Therapeutic index, ratio of IC50 for human WI38 cells to IC50 for human MCF7 cells; details: WI38 cells and MCF7 cells
[12] = Therapeutic index, ratio of IC50 for human WI38 cells to IC50 for human SKOV3 cells; details: WI38 cells and SKOV3 cells
[13] = Therapeutic index, ratio of IC50 for human WI38 cells to IC50 for human MBA-MD-231 cells; details: WI38 cells and MBA-MD-231 cells
[14] = Therapeutic index, ratio of IC50 for human WI38 cells to IC50 for human PC3 cells; details: WI38 cells and PC3 cells
[15] = tested on: SK-OV-3; assay: Cytotoxicity against human SKOV3 cells assessed as inhibition of cell proliferation after 4 days by crystal violet assay; assay type: functional, cell-based; details: SK-OV-3, 96 h
[16] = Induction of H2S release in 10% PBS:MeCN solution at 1 mM incubated at 22 degC in dark condition measured at 72 hrs by 2, 6-dansyl azide probed-based fluorescence assay; assay type: physicochemical; details: buffer, 1000 µM
[17] = Induction of H2S release in 10% PBS:MeCN solution at 100 uM incubated at 37 degC in dark condition measured at 72 hrs by 2, 6-dansyl azide probed-based fluorescence assay; assay type: physicochemical; details: buffer
[18] = Induction of H2S release in 10% PBS:MeCN solution at 0.5 mM incubated at 22 degC in dark condition measured at 48 hrs by 2, 6-dansyl azide probed-based fluorescence assay relative to control; assay type: physicochemical; details: buffer, 500 µM
[19] = Induction of H2S release in 10% PBS:MeCN solution at 0.5 mM incubated at 37 degC in dark condition measured at 48 hrs by 1 mM 2, 6-dansyl azide probed-based fluorescence assay relative to control; assay type: physicochemical; details: buffer, 500 µM
[20] = Induction of H2S release in 10% PBS:MeCN solution assessed as ratio of H2S level at 37 degC to H2S level at 22 degC at 0.5 mM incubated in dark condition measured at 96 hrs by 2, 6-dansyl azide probed-based fluorescence assay; assay type: physicochemical; details: buffer, 500 µM
[21] = Induction of H2S release in 10% PBS:MeCN solution at 0.5 mM incubated at 22 degC in dark condition measured at 48 hrs by 2, 6-dansyl azide probed-based fluorescence assay relative to 12 uM of GYY4137; assay type: physicochemical; details: buffer, 500 µM
[22] = Induction of H2S release in 10% PBS:MeCN solution at 0.5 mM incubated at 37 degC in dark condition measured at 48 hrs by 2, 6-dansyl azide probed-based fluorescence assay relative to 6.9 uM of GYY4137; assay type: physicochemical; details: buffer, 500 µM
[23] = tested on: Hepatocyte; assay: Toxicity in transforming growth factor alpha transgenic mouse hepatocytes at 100 uM after 24 hrs by CellTiter-Glo cell viability assay; assay type: cell-based
[24] = Effective permeability of the compound at 500 uM after 6 hrs by PAMPA
[25] = Effective permeability of the compound at 500 uM after 16 hrs by PAMPA
[26] = physchem; details: DMSO, pH 7.4
Description: Kinetic solubility of the compound in DMSO at pH 7.4 measured at 24 hrs by multiscreen filter paper-based UV absorbance analysis

Structure (SMILES)	%max [1] [%]	%max [2] [%]	Ratio [3]	fold change (FC) [4]	fold change (FC) [5]	IC50 [6] [µM]	IC50 [7] [µM]	IC50 [8] [µM]	IC50 at 4 days [10] [µM]	selectivity ratio [11]	selectivity ratio [12]	selectivity ratio [13]	IC50 [15] [µM]	Activity [16] [µM]	Activity [17]	further results
C1COCCN1.CCCCOP(=S)(S)c1ccc(OC)cc1 (stereo not drawn)	0.04	0.12	3.2	< 0.1	< 0.1	92	193	77.6	177	1.1	1.1	1.1	–	–	–	IC50 [9]: 79.1 µM; selectivity ratio [14]: 1.1
COc1ccc(P2(=S)Nc3cc(OC)ccc3O2)cc1 (stereo not drawn)	–	–	–	–	–	39.4	–	–	115	2.9	2.9	–	30.2	–	–	Activity ([16]; BLD = below limit of detection): BLD; Activity ([17]; BLD = below limit of detection): BLD
CN1c2ccccc2OP1(=S)c1ccccc1 (stereo not drawn)	–	–	–	–	–	72.7	–	–	207	2.8	2.8	–	69.4	24.4	20.7 µM	–
COc1ccc(P2(=S)Oc3ccccc3N2C)cc1 (stereo not drawn)	–	–	–	–	–	42.6	–	–	92.5	2.1	2.1	–	44.2	2.1	10.1 µM	–
C1COCCN1.COc1ccc(P(=S)(S)OC(C)C)cc1 (stereo not drawn)	0.04	0.12	3	< 0.1	< 0.1	266	205	84.6	> 400	1.5	1.5	1.5	200	–	–	–
Fc1ccc2c(c1)NP(=S)(c1ccc(Oc3ccccc3)cc1)O2 (stereo not drawn)	–	–	–	–	–	13.6	–	–	65.6	1.7	1.7	–	38.1	5	Not Active	–
NCc1ccccc1.S=P(S)(NCc1ccccc1)NCc1ccccc1	–	–	–	–	–	145	218	104	266	1.4	1.4	1.4	189	–	–	%max [18]: 2.4%; %max [19]: 1.9%; Ratio [20]: 0.8; fold change (FC) [21]: 2; fold change (FC) [22]: 2.8; selectivity ratio [14]: 1.4
C1COCCN1.COc1ccc(P(=S)(S)OC)cc1 (stereo not drawn)	0.06	0.15	2.5	< 0.1	< 0.1	450	446	216	–	–	–	–	430	–	–	IC50 [9]: > 200 µM; Activity [23]: Non-toxic; Peff ([24]; pampa, 6 h, 500 µM): 0.003 ×10⁻⁷ cm/s; Papp at 16 h, 500 µM [25]: 0.0031 ×10⁻⁶ cm/s
COc1ccc(P2(=S)Nc3cc(F)ccc3O2)cc1 (stereo not drawn)	–	–	–	–	–	33.6	–	–	> 200	–	2.8	–	70.8	53.8	33.3 µM	–
Cc1ccc2c(c1)OP(=S)(c1ccc(Oc3ccccc3)cc1)N2 (stereo not drawn)	–	–	–	–	–	186	–	–	> 400	–	2	–	196	39.2	59.9 µM	–
NCC1CCCCC1.S=P(S)(NCC1CCCCC1)NCC1CCCCC1	–	–	–	–	–	172	> 500	> 500	287	1	1	1	179	–	–	%max [18]: 0.82%; %max [19]: 21.8%; Ratio [20]: 2.7; fold change (FC) [21]: 6.8; fold change (FC) [22]: 31.6; selectivity ratio [14]: 1
C1COCCN1.COP(=S)(S)c1ccc(Oc2ccccc2)cc1 (stereo not drawn)	0.06	0.16	2.7	< 0.1	< 0.1	181	202	87	347	1.9	1.9	1.9	165	–	–	IC50 [9]: 73.1 µM; selectivity ratio [14]: 1.9
COc1ccc(P2(=S)Nc3ccc(C)cc3O2)cc1 (stereo not drawn)	–	–	–	–	–	93.2	–	–	> 400	–	1.9	–	211	59	48.2 µM	–
COc1ccc(P2(=S)Nc3ccccc3O2)cc1 (stereo not drawn)	–	–	–	–	–	37.1	–	–	94.4	2.5	2.5	–	38.1	48.3	42.7 µM	–
COc1ccc(P(=S)(S)OCCCN)cc1 (stereo not drawn)	0.02	0.06	2.7	< 0.1	< 0.1	> 400	> 500	> 500	–	–	–	–	> 400	–	–	Papp at 6 h, 500 µM ([24]; PAMPA): 0.007 ×10⁻⁶ cm/s; Papp at 16 h, 500 µM [25]: 0.0027 ×10⁻⁶ cm/s; solubility kinetic at 24 h [26]: > 280 µg/mL
